Source: patent US7161032B2, “Sulfonamide derivatives, insecticides for agricultural and horticultural use, and usage thereof” (Nihon Nohyaku Co., Ltd., priority 2002, dated 2007)

Tests used:
Type in all cases: in vivo
[1] = system: Diamond Back Moth (Plutella xylostella); assay: Insecticidal effect on diamond back moth (Test Example 1): egg-bearing Chinese cabbage seedling immersed in 50 ppm liquid chemical
Method: Adult diamond back moths were released and allowed to oviposit on a Chinese cabbage seedling. Two days after the release, the seedling having the eggs deposited thereon was immersed for about 30 seconds in a liquid chemical prepared by diluting a preparation containing each compound listed in Table 1 or 2 as an active ingredient to adjust the concentration to 50 ppm. After air-dryness, it was allowed to stand in a room thermostated at 25° C. Six days after the immersion, the hatched insects were counted. The mortality was calculated according to the following equation and the insecticidal effect was judged according to the criterion shown below. The test was carried out with triplicate groups of 10 insects. [formula]

[2] = system: Common Cutworm (Spodoptera litura); assay: Insecticidal effect on common cutworm (Test Example 2): cabbage leaf piece immersed in 50 ppm liquid chemical; settings: common cutworm (Spodoptera litura) second-instar larvae, 8 days after inoculation, 25° C.
Method: A piece of cabbage leaf (cultivar: Shikidori) was immersed for about 30 seconds in a liquid chemical prepared by diluting a preparation containing each compound listed in Table 1 or 2 as an active ingredient to adjust the concentration to 50 ppm. After air-dryness, it was placed in a plastic Petri dish with a diameter of 9 cm and inoculated with second-instar larvae of common cutworm, after which the dish was closed and then allowed to stand in a room thermostated at 25° C. Eight days after the inoculation, the dead and alive were counted. The mortality was calculated according to the following equation and the insecticidal effect was judged according to the criterion shown in Test Example 1. The test was carried out with triplicate groups of 10 insects. [formula]

[3] = system: Smaller Tea Tortrix (Adoxophyes sp.); assay: Insecticidal effect on smaller tea tortrix (Test Example 3): tea leaves immersed in 50 ppm liquid chemical; settings: smaller tea tortrix (Adoxophyes sp.) larvae, 8 days after inoculation, 25° C., humidity 70%
Method: Tea leaves were immersed for about 30 seconds in a liquid chemical prepared by diluting a preparation containing each compound listed in Table 1 or 2 as an active ingredient to adjust the concentration to 50 ppm. After air-dryness, the tea leaves were placed in a plastic Petri dish with a diameter of 9 cm and inoculated with larvae of smaller tea tortrix, after which the dish was allowed to stand in a room thermostated at 25° C. and having a humidity of 70%. Eight days after the inoculation, the dead and alive were counted and the insecticidal effect was judged according to the criterion shown in Test Example 1. The test was carried out with triplicate groups of 10 insects.

Row | SMILES | Insecticidal effect (mortality grade), Test Example 1 [1] | Insecticidal effect (mortality grade), Test Example 2 [2] | Insecticidal effect (mortality grade), Test Example 3 [3]
1 | Cc1cc(C(F)(C(F)(F)F)C(F)(F)F)ccc1NC(=O)c1cccc(I)c1C(=O)NC(C)CS(=O)(=O)NCCCl (stereo not drawn) [1-71] | A (Mortality 100%) | A (Mortality 100%) | A (Mortality 100%)
2 | CSCC(C)(C)NS(=O)(=O)CC(C)NC(=O)c1c(I)cccc1C(=O)Nc1ccc(C(F)(C(F)(F)F)C(F)(F)F)cc1C (stereo not drawn) [1-94] | A (Mortality 100%) | A (Mortality 100%) | A (Mortality 100%)
3 | CCN(CC)S(=O)(=O)CCCC(C)(C)NC(=O)c1c(I)cccc1C(=O)Nc1ccc(C(F)(C(F)(F)F)C(F)(F)F)cc1C [1-201] | A (Mortality 100%) | A (Mortality 100%) | A (Mortality 100%)
4 | CCN(CC)S(=O)(=O)CC(C)NC(=O)c1c(Cl)cccc1C(=O)Nc1ccc(C(F)(C(F)(F)F)C(F)(F)F)cc1C (stereo not drawn) [1-211] | A (Mortality 100%) | A (Mortality 100%) | A (Mortality 100%)
5 | Cc1cc(C(F)(C(F)(F)F)C(F)(F)F)ccc1NC(=O)c1cccc(I)c1C(=O)NC(C)(C)CS(=O)(=O)N1CCS(=O)(=O)CC1C (stereo not drawn) [1-63] | A (Mortality 100%) | A (Mortality 100%) | A (Mortality 100%)
6 | COC(=O)N1CCN(S(=O)(=O)CC(C)NC(=O)c2c(I)cccc2C(=O)Nc2ccc(C(F)(C(F)(F)F)C(F)(F)F)cc2C)CC1 (stereo not drawn) [1-66] | A (Mortality 100%) | A (Mortality 100%) | A (Mortality 100%)
7 | CSCCNS(=O)(=O)CC(C)NC(=O)c1c(I)cccc1C(=O)Nc1ccc(C(F)(C(F)(F)F)C(F)(F)F)cc1C (stereo not drawn) [1-75] | A (Mortality 100%) | A (Mortality 100%) | A (Mortality 100%)
8 | Cc1cc(C(F)(C(F)(F)F)C(F)(F)F)ccc1NC(=O)c1cccc(I)c1C(=O)NC(C)CS(=O)(=O)NCc1ccccc1 (stereo not drawn) [1-22] | A (Mortality 100%) | A (Mortality 100%) | A (Mortality 100%)
9 | CCN(CC)C(=O)CNS(=O)(=O)CC(C)NC(=O)c1c(I)cccc1C(=O)Nc1ccc(C(F)(C(F)(F)F)C(F)(F)F)cc1C (stereo not drawn) [1-105] | A (Mortality 100%) | A (Mortality 100%) | E (Mortality less than 50%)
10 | CCN(CC)S(=O)(=O)CC(C)NC(=O)c1c(I)cccc1C(=O)Nc1ccc(C(F)(C(F)(F)F)C(F)(F)F)cc1C (stereo not drawn) [1-6] | A (Mortality 100%) | A (Mortality 100%) | A (Mortality 100%)
11 | COCCNS(=O)(=O)CC(C)(C)NC(=O)c1c(I)cccc1C(=O)Nc1ccc(C(F)(C(F)(F)F)C(F)(F)F)cc1C [1-79] | A (Mortality 100%) | A (Mortality 100%) | A (Mortality 100%)
12 | CCNS(=O)(=O)CC(C)NC(=O)c1c(I)cccc1C(=O)Nc1ccc(OC(F)(F)F)cc1C (stereo not drawn) [1-275] | A (Mortality 100%) | E (Mortality less than 50%) | E (Mortality less than 50%)
13 | Cc1cc(C(F)(C(F)(F)F)C(F)(F)F)ccc1NC(=O)c1cccc(I)c1C(=O)NC(C)(C)CS(=O)(=O)NCc1ccccc1 [1-184] | A (Mortality 100%) | A (Mortality 100%) | A (Mortality 100%)
14 | Cc1cc(C(F)(C(F)(F)F)C(F)(F)F)ccc1NC(=O)c1cccc(I)c1C(=O)NC(C)CS(=O)(=O)NCc1cccnc1 (stereo not drawn) [1-40] | A (Mortality 100%) | A (Mortality 100%) | A (Mortality 100%)
